Source: PubChem BioAssay (NCI)
Values joined by “and” are separate entries in the source; they are usually repeats but may differ in a detail not shown here. Equal values may be shown once.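 Results reflect a 48-hour exposure of cells in 96-well plates to compound at five concentrations. GI50 is the concentration that inhibits growth by half. TGI marks complete inhibition of growth.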 *1 amine or outer side, *2 acyl side, *3 side chain or, on linkers, in order; H or OH if unused. Where a SMILES comes first, the peptide text is derived from it. [ ]: non-standard residue; d: D form. The star is where a group is joined. X12 = NCCCCC(N[*:1])C(=O)CN1CCCC1C(=O)[*:2]; Pentadecanoyl = CCCCCCCCCCCCCCC(=O)*

How the values were obtained:
Assay in all cases: NCI tumour cell line growth inhibition, 48 h
SW-620 colon = system: SW-620 colon
MALME-3M melanoma = system: MALME-3M melanoma
ACHN renal = system: ACHN renal
HCT-116 colon = system: HCT-116 colon
SK-MEL-2 melanoma = system: SK-MEL-2 melanoma
SF-268 CNS = system: SF-268 CNS
MDA-MB-435 = system: MDA-MB-435
BT-549 breast = system: BT-549 breast
HOP-62 NSCLC = system: HOP-62 NSCLC
K-562 leukemia = system: K-562 leukemia

SMILES	TGI (SW-620 colon) [µM]	TGI (MALME-3M melanoma) [µM]	TGI (ACHN renal) [µM]	TGI (HCT-116 colon) [µM]	TGI (SK-MEL-2 melanoma)	TGI (SF-268 CNS) [µM]	TGI (MDA-MB-435)	TGI (BT-549 breast)	TGI (HOP-62 NSCLC) [µM]	TGI (K-562 leukemia) [µM]	GI50 (SW-620 colon) [µM]	GI50 (MALME-3M melanoma) [µM]	GI50 (HCT-116 colon) [µM]	GI50 (SK-MEL-2 melanoma) [µM]	GI50 (K-562 leukemia) [µM]	GI50 (SF-268 CNS) [µM]	GI50 (MDA-MB-435) [µM]	GI50 (BT-549 breast) [µM]	GI50 (HOP-62 NSCLC) [µM]
CC(=O)OC1COC(n2c(N)c(C#N)c(-c3ccccc3)c(C#N)c2=S)C(OC(C)=O)C1OC(C)=O (stereo not drawn)	> 100	> 100	> 100	> 100	> 100 µM and 68.4 µM	> 100	93.6 µM and 61.2 µM	71.8 µM and 62.9 µM	> 100										
O=C1/C(=C/Cc2ccco2)N=C(c2ccccc2)N1c1nc2c(Cl)cc(Cl)cc2s1	> 100		74.6	81.2	63.5 µM	89.2	60.1 µM	83.5 µM	> 100	> 100									
CC1[C@@H]2C[C@@H]3O[C@@]34[C@H]3CCC5Cc6nc7c(nc6C[C@@]5(C)C3(O)CC(=O)[C@@]24CO[C@]12OC(C)(C)CC2O)CC1CC[C@@H]2C3=C[C@H]4O[C@@]5(O[C@@](C)(CO)C[C@@H]5O)C(C)[C@@]4(O)[C@]3(C)[C@@H](O)CC2[C@]1(C)C7 (stereo partly drawn)	0.49	0.247		> 3.52	0.863 µM	0.683			0.0729	0.666									
Cc1cc(N)c2cc(NC(=O)CCCCCCCCC(=O)Nc3ccc4nc(C)cc(N)c4c3)ccc2n1	> 100	68.8	> 100	> 79	> 100 µM	> 100			> 100	> 100									
COC1OC2COC(c3ccccc3)OC2C(OC(=S)c2ccccc2)C1O (stereo not drawn)	> 100	> 100	> 100		> 100 µM	> 100	22.8 µM	> 100 µM	41.1	> 100									
O=C(OCC(OC(=O)c1ccccc1)C1CC(C(O)C2CCCCC2)C(=O)O1)c1ccccc1 (stereo not drawn)	> 100		> 100	> 100	> 100 µM	> 100	> 100 µM	> 100 µM	> 100	50.5									
O=C(c1cccs1)N(C(=O)N1CCCCC1)c1ccccc1	> 100	> 100	> 100	> 100	> 100 µM	> 100	> 100 µM	> 100 µM		> 100									
CC1CC/C(=C\c2ccc(F)cc2)C2=C1C(c1ccc(F)cc1)NC(=S)N2 (stereo not drawn)	> 100	87.3	> 100	> 100	> 100 µM	> 100	> 100 µM	> 100 µM		> 100									
CCCCCCCCCCCCCCC(=O)NC(CCCCN)C(=O)CN1CCCC1C(=O)NCC(=O)NC(Cc1ccccc1)C(=O)N1CCCC1C(=O)NC(CO)C(=O)NC(Cc1ccc(O)cc1)C(=O)NC(CCCCN)C(=O)NC(CC(C)C)C(=O)NC(CCCN=C(N)N)C(=O)N1CCCC1C(=O)NCC(N)=O (stereo not drawn) (Pentadecanoyl-[X12]GFPSYKLRPG-NH2; configuration not given here)	80.9	32.2		29.6	> 100 µM	52.9	89.3 µM	59.6 µM	45.2	40	29.9	8.11	14.2	37.5	19.5	22.4	28.2	29.6	20.5
C[C@@H]1CC(=O)[C@@]2(C)[C@](O)(CCC3O[C@]32C)[C@@]12CC(c1ccoc1)OC2=O (stereo partly drawn)	> 100	> 100	> 100	> 100	> 100 µM		> 100 µM	> 100 µM		> 100									
c1ccc(C2C3=C(CCCC3)Nc3nnnn32)cc1 (stereo not drawn)	> 100		> 100	> 100	> 100 µM	90.8	> 100 µM	98.4 µM	> 100	> 100									
S=C1NNC(=S)NN1	> 1	> 1	> 1	> 1	> 1 µM	> 1		> 1 µM	> 1	0.478									
C(=N\Nc1nnc(-c2nnc(N/N=C/c3ccccc3)o2)o1)/c1ccccc1	> 10	> 10	> 10	> 10		> 10	> 10 µM	> 10 µM	> 10	> 10									
COc1ccc(-c2nc3ncccn3c2-c2ccc(S(C)(=O)=O)cc2)cc1	> 100		> 100	> 100	> 100 µM	> 100	> 100 µM	> 100 µM	> 100	> 100									
CN(C)CCSc1nccc(-c2ccc(-c3ccnc(SCCN(C)C)n3)s2)n1	18.1	24.2		13.1	29.5 µM	22			30.6	23.2									
COc1ccc(Cn2nc(OCc3ccccc3)c3cc([N+](=O)[O-])ccc32)cc1	> 100	> 100	> 100		> 100 µM	> 100	> 100 µM		> 100	> 100									
C/C(=C\c1ccccc1)n1c(=O)cc(C)n1C	> 100		> 100	> 100	> 100 µM	> 100	> 100 µM	> 100 µM	> 100	> 100									
CC(NC1=NCCO1)c1ccco1 (stereo not drawn)	> 100	> 100	> 100	> 100	> 100 µM	> 100	> 100 µM		> 100	> 100									
N#Cc1nc(C(=O)c2ccccc2)oc1N	> 100		> 100	> 100	> 100 µM	> 100	> 100 µM		> 100	> 100									
CCOC(=O)c1sc2[n+](c1C)C(=O)/C(=C/c1ccccc1Cl)S2	46.5	31.5	40	> 48	> 74.7 µM	> 53.5	> 100 µM		60.9	24.2									
O=S1(=O)OCCOS(=O)(=O)C1S(=O)(=O)c1cccc2ccccc12	> 100	> 100	> 100	57.1	> 100 µM		> 100 µM	> 100 µM	> 100	> 100									
COc1cccc2c1C(=O)c1c(O)c3c(c(O)c1C2=O)C[C@@](O)(C(=O)CO)CC3OC1CC(NCCCCC(OC(C)=O)OC(C)=O)C(O)C(C)O1 (stereo partly drawn)	> 1		0.0057		0.00435 µM and 0.00331 µM					0.00466	0.00175			0.00171	0.000522				0.00248
